Measurements reported in ChEMBL document CHEMBL1201862, “PubChem BioAssay data set” (2004).
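Compound exposure: 48 hours, 5 concentrations, 96-well plates. Abbreviation: GI50, concentration required for 50% inhibition of growth.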 Active and inactive are the calls of the source. No stated cut-off is given here; in the data, active = GI50 up to about 1.1 µM and inactive = higher.

Columns and labels:
Assay in all cases: growth of human tumour cells (NCI), 48 h
SF-295 = tested on: SF-295
DU-145 = tested on: DU-145
Hs-578T = tested on: Hs-578T
HOP-62 = tested on: HOP-62
K562 = tested on: K562
OVCAR-8 = tested on: OVCAR-8
NCI/ADR-RES = tested on: NCI/ADR-RES
MDA-N = tested on: MDA-N
HCT-15 = tested on: HCT-15
RPMI-8226 = tested on: RPMI-8226
TK-10 = tested on: TK-10
NCI-H522 = tested on: NCI-H522
SF-268 = tested on: SF-268
786-0 = tested on: 786-0
MCF7 = tested on: MCF7
SNB-19 = tested on: SNB-19
UACC-257 = tested on: UACC-257
RXF 393 = tested on: RXF 393
HCC 2998 = tested on: HCC 2998

With `CC(=O)OI1NC(=O)c2ccccc21` the GI50 (SF-295) was > 100 µM (inactive), the GI50 (DU-145) was > 100 µM (inactive) and the GI50 (Hs-578T) was > 100 µM (inactive). The GI50 (HOP-62) was > 100 µM (inactive), the GI50 (K562) was > 100 µM (inactive) and the GI50 (OVCAR-8) was > 100 µM (inactive). The GI50 (NCI/ADR-RES) was > 100 µM (inactive), the GI50 (MDA-N) was > 100 µM (inactive) and the GI50 (HCT-15) was greater than 100 µM. For the same compound, the GI50 (RPMI-8226) was > 100 µM (inactive), the GI50 (TK-10) was > 100 µM (inactive) and the GI50 (NCI-H522) was 80.2 µM (inactive). For the same compound, the GI50 (SF-268) was > 100 µM (inactive), the GI50 (786-0) was > 100 µM (inactive) and the GI50 (MCF7) was 93.5 µM (inactive). The GI50 (SNB-19) was > 100 µM (inactive).
`O=C1C2C(c3ccccc3)NC(c3ccccc3)C1C(c1ccccc1)NC2c1ccccc1` (stereo not given) was tested, and the GI50 (SF-295) was > 100 µM (inactive), the GI50 (DU-145) was > 100 µM (inactive) and the GI50 (Hs-578T) was > 100 µM (inactive). For the same compound, the GI50 (HOP-62) was > 100 µM (inactive), the GI50 (K562) was > 100 µM (inactive) and the GI50 (OVCAR-8) was > 100 µM (inactive). The GI50 (NCI/ADR-RES) was > 100 µM (inactive), the GI50 (MDA-N) was > 100 µM (inactive) and the GI50 (HCT-15) was greater than 100 µM. For the same compound, the GI50 (RPMI-8226) was > 100 µM (inactive), the GI50 (UACC-257) was > 100 µM (inactive) and the GI50 (TK-10) was > 100 µM (inactive). The GI50 (RXF 393) was > 100 µM (inactive), the GI50 (NCI-H522) was > 100 µM (inactive) and the GI50 (SF-268) was > 100 µM (inactive). The GI50 (786-0) was > 100 µM (inactive), the GI50 (MCF7) was > 100 µM (inactive) and the GI50 (SNB-19) was > 100 µM (inactive).
In the case of `O=C(NC1(c2cc3ccccc3s2)CCCCC1)C1CCC1`, the GI50 (SF-295) is reported as > 100 µM (inactive), the GI50 (DU-145) is reported as > 100 µM (inactive) and the GI50 (Hs-578T) is reported as 37.1 µM (inactive). For the same compound, the GI50 (HOP-62) was > 100 µM (inactive), the GI50 (K562) was > 100 µM (inactive) and the GI50 (OVCAR-8) was 66.4 µM (inactive). The GI50 (NCI/ADR-RES) was > 100 µM (inactive), the GI50 (MDA-N) was > 100 µM (inactive) and the GI50 (HCT-15) was greater than 100 µM. The GI50 (RPMI-8226) was > 100 µM (inactive), the GI50 (HCC 2998) was > 100 µM (inactive) and the GI50 (UACC-257) was > 100 µM (inactive). For the same compound, the GI50 (TK-10) was > 100 µM (inactive), the GI50 (RXF 393) was > 100 µM (inactive) and the GI50 (NCI-H522) was > 100 µM (inactive). For the same compound, the GI50 (786-0) was > 100 µM (inactive), the GI50 (MCF7) was > 100 µM (inactive) and the GI50 (SNB-19) was > 100 µM (inactive).
For `CC(C)CCCC(C)[C@H]1CC[C@H]2N/C(=N/c3ccccc3)CCC[C@]12C` (stereo not given in full), the GI50 (SF-295) was 1.6 µM (inactive), the GI50 (DU-145) was 6.52 µM (inactive) and the GI50 (Hs-578T) was 2.26 µM (inactive). The GI50 (HOP-62) was 2.52 µM (inactive), the GI50 (K562) was 1.33 µM (inactive) and the GI50 (OVCAR-8) was 0.893 µM (active). For the same compound, the GI50 (NCI/ADR-RES) was 1.68 µM (inactive), the GI50 (MDA-N) was 3.03 µM (inactive) and the GI50 (HCT-15) was 1.07 µM. For the same compound, the GI50 (RPMI-8226) was 1.65 µM (inactive), the GI50 (UACC-257) was 2.12 µM (inactive) and the GI50 (TK-10) was 2.62 µM (inactive). The GI50 (RXF 393) was 1.42 µM (inactive), the GI50 (SF-268) was 2.06 µM (inactive) and the GI50 (786-0) was 1.77 µM (inactive). The GI50 (MCF7) was 1.79 µM (inactive) and the GI50 (SNB-19) was 2.89 µM (inactive).
With `O=C(Nc1ccc(Cl)cc1)[C-](C(=O)c1ccc(Br)cc1)[n+]1cccc(-c2ccc(Cl)cc2)n1` the GI50 (SF-295) was 2.6 µM (inactive), the GI50 (DU-145) was 5.45 µM (inactive) and the GI50 (Hs-578T) was 4.25 µM (inactive). For the same compound, the GI50 (HOP-62) was 6.28 µM (inactive), the GI50 (K562) was 6.3 µM (inactive) and the GI50 (OVCAR-8) was 3.56 µM (inactive). The GI50 (NCI/ADR-RES) was 3.53 µM (inactive), the GI50 (MDA-N) was 4.53 µM (inactive) and the GI50 (HCT-15) was 3.93 µM. For the same compound, the GI50 (RPMI-8226) was 3.81 µM (inactive), the GI50 (HCC 2998) was 6.78 µM (inactive) and the GI50 (UACC-257) was 3.88 µM (inactive). The GI50 (TK-10) was 5.74 µM (inactive), the GI50 (NCI-H522) was 2.26 µM (inactive) and the GI50 (SF-268) was 4.62 µM (inactive). The GI50 (786-0) was 2.56 µM (inactive), the GI50 (MCF7) was 1.41 µM (inactive) and the GI50 (SNB-19) was 8.41 µM (inactive).
`Nc1ccc(C(=O)c2cn(CCN3CCOCC3)c3ccccc23)c2ccccc12` was tested, and the GI50 (SF-295) was 33.3 µM (inactive), the GI50 (DU-145) was 63 µM (inactive) and the GI50 (Hs-578T) was 28.2 µM (inactive). For the same compound, the GI50 (HOP-62) was 83.4 µM (inactive), the GI50 (K562) was 17.3 µM (inactive) and the GI50 (OVCAR-8) was 20.2 µM (inactive). The GI50 (NCI/ADR-RES) was 22.7 µM (inactive), the GI50 (MDA-N) was 32.5 µM (inactive) and the GI50 (HCT-15) was 18.2 µM. The GI50 (RPMI-8226) was 26.5 µM (inactive), the GI50 (HCC 2998) was 47.2 µM (inactive) and the GI50 (UACC-257) was 45.6 µM (inactive). The GI50 (NCI-H522) was 21 µM (inactive), the GI50 (SF-268) was 32.6 µM (inactive) and the GI50 (786-0) was 54.6 µM (inactive). For the same compound, the GI50 (MCF7) was 34 µM (inactive) and the GI50 (SNB-19) was 75 µM (inactive).
With `Cc1ccc(C)n2c1nc1ccccc12` the GI50 (SF-295) was > 100 µM (inactive), the GI50 (DU-145) was > 100 µM (inactive) and the GI50 (Hs-578T) was > 100 µM (inactive). The GI50 (HOP-62) was 85.5 µM (inactive), the GI50 (K562) was > 100 µM (inactive) and the GI50 (OVCAR-8) was > 100 µM (inactive). For the same compound, the GI50 (NCI/ADR-RES) was > 100 µM (inactive), the GI50 (MDA-N) was > 100 µM (inactive) and the GI50 (HCT-15) was greater than 100 µM. The GI50 (RPMI-8226) was > 100 µM (inactive), the GI50 (HCC 2998) was > 100 µM (inactive) and the GI50 (UACC-257) was > 100 µM (inactive). The GI50 (TK-10) was > 100 µM (inactive), the GI50 (RXF 393) was 96.4 µM (inactive) and the GI50 (SF-268) was > 100 µM (inactive). For the same compound, the GI50 (786-0) was > 100 µM (inactive), the GI50 (MCF7) was > 100 µM (inactive) and the GI50 (SNB-19) was > 100 µM (inactive).
In the case of `COc1ccc(/C=C/c2cc(OC)cc(=O)o2)cc1` [YANGONIN], the GI50 (SF-295) is reported as 37.2 µM (inactive), the GI50 (DU-145) is reported as 95.9 µM (inactive) and the GI50 (Hs-578T) is reported as 35.5 µM (inactive). The GI50 (HOP-62) was 40 µM (inactive), the GI50 (K562) was 63.1 µM (inactive) and the GI50 (OVCAR-8) was > 100 µM (inactive). For the same compound, the GI50 (NCI/ADR-RES) was > 100 µM (inactive), the GI50 (MDA-N) was 91.6 µM (inactive) and the GI50 (HCT-15) was greater than 100 µM. The GI50 (RPMI-8226) was > 100 µM (inactive), the GI50 (HCC 2998) was > 100 µM (inactive) and the GI50 (UACC-257) was > 100 µM (inactive). For the same compound, the GI50 (TK-10) was 45.1 µM (inactive), the GI50 (RXF 393) was 44.2 µM (inactive) and the GI50 (SF-268) was 60.1 µM (inactive). The GI50 (786-0) was 36.1 µM (inactive), the GI50 (MCF7) was > 100 µM (inactive) and the GI50 (SNB-19) was 50.4 µM (inactive).
